According to patent US20220145264A1, “CULTURE MEDIUM FOR MAMMALIAN EXPANDED POTENTIAL STEM CELLS, COMPOSITION, AND METHODS THEREOF” (THE UNIVERSITY OF HONG KONG, priority 2019, published 2022):

Experiments:
pEPSCs^Emb = assay: Requirement of individual culture components for pEPSCs (RT-qPCR, AP+ colony formation); format: cell-based, porcine
Experimental: (§1) Porcine and human EPSC cultures were routinely maintained on STO feeders. STO feeder plates were prepared 3-4 days before passaging by thawing and plating the mitomycin C inactivated STO cells on 0.1% gelatinised plates at the density of ˜1.1×10^4 cells/cm^2. Porcine/human EPSC cells were maintained on STO feeder layers and enzymatically passaged every 3-5 days by a brief PBS wash followed by treatment for 3-5 minutes with 0.25% trypsin/EDTA (Gibco, Cat. No. 25500-054). The cells were dissociated and centrifuged (300 g×5 minutes) in M10 medium. M10: knockout DMEM (Gibco, Cat. No. 10829-018), 10% FBS (Gibco, Cat. No. 10270), 1× Glutamine Penicillin-Streptomycin (Thermo Fisher Scientific, Cat. No. 11140050) and 1×NEAA (Thermo Fisher Scientific, Cat. No. 10378-016). After removing supernatant, the porcine/human EPSCs were re-suspended and seeded in pEPSCM/hEPSCM supplemented with 5 μM ROCK inhibitor Y-27632 (Tocris, Cat. No. 1254). 5% FBS (Gibco, Cat. No. 10270) and 10% KnockOut Serum Replacement (KSR) (Gibco, Cat. No. 10828028) were added in pEPSCM and hEPSCM respectively to improve cells survive. 12-24 hours later, medium was switched to pEPSCM/hEPSCM only. Both pEPSCM and hEPSCM are N2B27 based media. N2B27 basal media (500 ml) was prepared by inclusion of the following components: 482.5 ml DMEM/F-12 (Gibco, Cat. No. 21331-020), 2.5 ml N2 supplement (Thermo Fisher Scientific, Cat. No. 17502048), 5 ml B27 supplement (Thermo Fisher Scientific, Cat. No. 17504044), 5 ml 1× Glutamine Penicillin-Streptomycin (Thermo Fisher Scientific, Cat. No. 11140-050), and 5 ml 1×NEAA (Thermo Fisher Scientific, Cat. No. 10378-016), 0.1 mM 2-mercaptoethanol (Sigma, Cat. No. M6250). pEPSCM (500 ml) was generated by adding the following small molecules and cytokines into 500 ml N2B27 basal media: 0.2 μM CHIR99021(GSK3i, TOCRIS, Cat. No. 4423), 1 μM WH-4-023 (SRC inhibitor, TOCRIS, Cat. No. 5413), 2.5 μM XAV939 (Sigma, Cat. No. X3004) or 2.5 μM IWR-1 (TOCRIS, Cat. No. 3532), […] Vitamin C (Sigma, Cat. No. 49752-100G), 10 ng/ml LIF (Stem Cell Institute, University of Cambridge. SCI) and 20 ng/ml ACTIVIN (SCI). hEPSCM (500 ml) was generated by adding the following components into 500 ml N2B27 basal media: 1.0 μM CHIR99021(GSK3 inhibitor, TOCRIS, Cat. No. 4423), 0.5 μM A-419259 (SRC inhibitor, TOCRIS, Cat. No. 3914), 2.5 μM XAV939 (Sigma, Cat. No. X3004), […] Vitamin C (Sigma, Cat. No. 49752-100G), 10 ng/ml LIF (SCI). Although both targeting SRC family kinases (SFKs), WH-4-023 and A419259 were preferred for porcine and human EPSCs, respectively. […] The concentrations of CHIR99021 for porcine and human EPSC cultures are 0.2 μM and 1.0 μM, respectively. […] 0.25 μM SB 590885 (BRAF inhibitor, R&D, Cat. No. 2650) and 2.0 μM SP600125 ([…], TOCRIS, Cat. No. 1496) were included to improve porcine and human EPSC cultures, but they were not essential for the routine maintenance of porcine and human EPSCs. All cell cultures in this paper were performed under conditions of 37° C. and 5% CO2 unless stated otherwise.
(§2) Total RNA was isolated using an RNeasy Mini Kit (Qiagen, Cat. No. 74106) for cultured cells or RNeasy Micro Kit (Qiagen, Cat. No. 74034) for sorted NANOS3-mCherry^+ cells. RNA was subsequently quantified and treated with gDNA WipeOut to remove genomic DNA. Complementary DNA (cDNA) was prepared using a QuantiTect Reverse Transcription Kit (Qiagen, Cat. No. 205311). RT-qPCR primers or TaqMan Gene Expression Assays (Life Technologies) are listed in Supplementary Table 10 and 11. ABsolute Blue qPCR ROX Mix (ABgene, Cat. No. AB4138B) were used for probe based qPCR assays and SYBR Green ROX qPCR Mastermix (Qiagen, Cat. No. 330523) were used for primer based qPCR assays. All qPCR reactions were performed on ABI 7900 HT Sequence Detection System (Life Technologies). Information on all primers and probes used for qPCR analysis are provided in Supplementary Table 10 and 11. Gene expression was determined relative to GAPDH using the […]. […]

H1-EPSCs = assay: Requirement of individual culture components for hEPSCs (RT-qPCR, AP+ colony formation); format: cell-based, human; settings: in the presence of 5.0 ng/ml
Experimental: as §1, §2

ACTIVIN A: Human Recombinant ACTIVIN A cytokine
cell survival and pluripotency factor expression (pEPSCs^Emb; removing ACTIVIN A from pEPSCM): massive cell loss and down-regulation of pluripotency factors | cell survival at passaging (H1-EPSCs): substantially improved

O=C(NOC[C@H](O)CO)c1ccc(F)c(F)c1Nc1ccc(I)cc1F [PD0325901]
pEPSC survival as measured by colony formation in serial passaging (pEPSCs^Emb; 0.1 μM added to pEPSCM): decreased pEPSC survival
